Reference: patent US20110045101A1, “FUNGICIDAL SUBSTITUTED AZOLES” (E.I. Du Pont De Nemours and Company, priority 2009, published 2011)
Marks after values point to notes of the source that are not given here.

Columns and labels:
Type in all cases: in vivo
Details in all cases: 100 = 100% disease control, 0 = no control
[1] = tested on: Botrytis cinerea; assay: Test C: tomato Botrytis on tomato seedlings, sprayed the day before inoculation, visual disease rating
Method in brief: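 Tomato seedlings sprayed to run-off with compound suspended in acetone/water with 250 ppm Trem 014 surfactant, at 200 ppm (≈500 g/ha) or 40 ppm where marked, one day before Botrytis cinerea inoculation. Disease rated visually.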

[2] = tested on: Septoria tritici; assay: Test G: wheat leaf blotch on wheat seedlings, sprayed the day before inoculation, visual disease rating
Method in brief: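 Spray to run-off, 200 ppm (≈500 g/ha; starred = 40 ppm), acetone/water 50/50 + 250 ppm Trem® 014. Spore inoculation +1 d. 24° C saturated 48 h → 20° C 19 d. Visual rating.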

[3] = tested on: Puccinia recondita f. sp. tritici; assay: Test I: wheat leaf rust on wheat seedlings, sprayed the day before inoculation, visual disease rating
Method in brief: (§1)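 Compounds were dissolved in acetone (3% of final volume), then suspended in 50/50 acetone/water with 250 ppm Trem 014 surfactant and sprayed to run-off on test plants. A 200 ppm suspension equals 500 g/ha. Ratings are at 200 ppm unless flagged as 40 ppm.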

[4] = tested on: Erysiphe graminis f. sp. tritici; assay: Test J: wheat powdery mildew on wheat seedlings, sprayed the day before inoculation, visual disease rating
Method in brief: as §1

[5] = tested on: Alternaria solani; assay: Test D: tomato early blight, sprayed the day before inoculation, visual disease rating
Method in brief: as §1

[6] = tested on: Septoria nodorum; assay: Test F: wheat glume blotch on wheat seedlings, sprayed the day before inoculation, visual disease rating
Method in brief: as §1

| SMILES | Test C disease control rating ([1]; 200 ppm) | Test G disease control rating ([2]; 200 ppm) | Test I disease control rating ([3]; 200 ppm) | Test J disease control rating ([4]; 200 ppm) | Test D disease control rating ([5]; 200 ppm) | Test F disease control rating ([6]; 200 ppm) | Test C disease control rating ([1]; 40 ppm (marked *)) | Test G disease control rating ([2]; 40 ppm (marked *)) | Test I disease control rating ([3]; 40 ppm (marked *)) | Test J disease control rating ([4]; 40 ppm (marked *)) | Test D disease control rating ([5]; 40 ppm (marked *)) | Test F disease control rating ([6]; 40 ppm (marked *)) |
| --- | --- | --- | --- | --- | --- | --- | --- | --- | --- | --- | --- | --- |
| Fc1ccc(-n2c(Cl)nc(Cl)c2-c2c(F)cc(F)cc2F)cc1 [compound 147] | 91% | 100% | 100% | 99% | 100% | 82% | – | – | – | – | – | – |
| COc1cc(F)c(-c2c(Cl)nc(Br)n2-c2ccc(C)cc2)c(F)c1 [compound 148] | 99% | 100% | 100% | 100% | 100% | 99% | – | – | – | – | – | – |
| COc1cc(Cl)cc(F)c1-c1c(Cl)nc(C)n1-c1ccc(Cl)cc1 [compound 149] | 53% | 96% | 95% | 95% | 0% | 98% | – | – | – | – | – | – |
| Fc1cccc(F)c1-n1c(Cl)nc(Cl)c1-c1ccc(Cl)cc1 [compound 150] | 99% | 98% | 97% | 100% | 100% | 60% | – | – | – | – | – | – |
| Cc1nc(C)n(-c2ccc(Cl)cc2)c1-c1c(F)cccc1F [compound 151] | – | – | – | – | – | – | 97* % | 99* % | 89* % | 96* % | 100* % | 69* % |
| Fc1ccc(-n2c(Br)nc(Cl)c2-c2c(F)cc(F)cc2F)cc1 [compound 152] | 99% | 96% | 89% | 99% | 99% | 69% | – | – | – | – | – | – |
| Cc1ccc(-n2c(Br)nc(Cl)c2-c2c(F)cc(F)cc2F)cc1 [compound 153] | 98% | 96% | 99% | 100% | 100% | 69% | – | – | – | – | – | – |
| Cc1ccc(-n2c(Cl)nc(Cl)c2-c2c(F)cc(F)cc2F)cc1 [compound 154] | 99% | 93% | 86% | 99% | 100% | 0% | – | – | – | – | – | – |
| Cc1ccc(-n2c(C)nc(Cl)c2-c2c(F)ccc(F)c2F)cc1 [compound 155] | 99% | 95% | 99% | 100% | 100% | 87% | – | – | – | – | – | – |
| CCOc1cc(F)c(-c2c(Cl)nc(C)n2-c2ccc(Cl)cc2)c(F)c1 [compound 156] | – | – | – | – | – | – | 98* % | 97* % | 97* % | 99* % | 100* % | 99* % |
| Cc1nc(Cl)c(-c2c(F)ccc(F)c2F)n1-c1ccc(Cl)c(F)c1 [compound 157] | 97% | 97% | 100% | 100% | 99% | 98% | – | – | – | – | – | – |
| COc1cc(F)c(-c2c(Cl)nc(C)n2-c2ccc(F)cc2)c(F)c1 [compound 158] | 99% | 97% | 100% | 100% | 100% | 96% | – | – | – | – | – | – |
| COc1cc(F)c(-c2c(Cl)nc(C)n2-c2ccc(C)cc2)c(F)c1 [compound 159] | 99% | 97% | 100% | 100% | 100% | 99% | – | – | – | – | – | – |
| Fc1ccc(-n2cnc(Cl)c2-c2c(F)cccc2F)cc1F [compound 160] | 91% | 93% | 28% | 98% | 93% | 0% | – | – | – | – | – | – |
| Cc1ccc(-n2cnc(Cl)c2-c2c(F)cccc2F)cc1F [compound 161] | 99% | 1% | 80% | 100% | 71% | 0% | – | – | – | – | – | – |
| Fc1cccc(F)c1-n1c(Br)nc(Br)c1-c1ccc(Cl)cc1 [compound 162] | – | – | – | – | – | – | 88* % | 93* % | 23* % | 94* % | 97* % | 0* % |
| Fc1cccc(F)c1-n1cnc(Cl)c1-c1ccc(Cl)cc1 [compound 163] | – | – | – | – | – | – | 0* % | 10* % | 0* % | 0* % | 0* % | 0* % |
| Fc1cccc(F)c1-n1c(Br)nc(Cl)c1-c1ccc(Cl)cc1 [compound 164] | – | – | – | – | – | – | 91* % | 96* % | 19* % | 94* % | 88* % | 0* % |
| CCn1nc(Br)c(-c2c(F)cccc2F)c1-c1ccc(Cl)cc1 [compound 165] | 0% | 93% | 27% | 93% | 0% | 0% | – | – | – | – | – | – |
| Cn1nc(Br)c(-c2c(F)cc(F)cc2F)c1-c1ccc(Cl)cc1 [compound 166] | 96% | 96% | 91% | 100% | 97% | 40% | – | – | – | – | – | – |
| Cc1nc(Cl)c(-c2c(F)cc(F)cc2F)n1-c1ccc(F)cc1 [compound 167] | – | – | – | – | – | – | 99* % | 95* % | 0* % | 98* % | 100* % | 0* % |
| Cc1ccc(-n2c(C)nc(Cl)c2-c2c(F)cc(F)cc2F)cc1 [compound 168] | 97% | 98% | 100% | 100% | 99% | 84% | – | – | – | – | – | – |
| Fc1ccc(-n2c(Br)nc(Cl)c2-c2c(F)cccc2F)cc1F [compound 169] | 99% | 96% | 88% | 99% | 100% | 40% | – | – | – | – | – | – |
